Source: PubChem BioAssay (NCI)
Values joined by “and” are separate entries in the source; they are usually repeats but may differ in a detail not shown here. Equal entries are not always repeated.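 Assay format: 96-well plates, 48-hour exposure. GI50 = concentration required for 50% inhibition of growth. TGI marks complete inhibition of growth.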 Where a SMILES comes first, the peptide text is derived from it. [ ]: non-standard residue; d: D form. The star is where a group is joined. Dolaproine = CO[C@@H]([C@@H]1CCCN1)[C@@H](C)C(=O)O; Dil = CC[C@H](C)[C@H](NC)[C@@H](CC(=O)O)OC; X2 = C[C@@H](N*)[C@@H](O)c1ccccc1; NMeV = CN[C@H](C(=O)O)C(C)C

Key:
Assay in all cases: DTP human tumour cell line panel, 48 h
[1] = system: MDA-MB-468 breast
[2] = system: ACHN renal
[3] = system: BT-549 breast
[4] = system: CCRF-CEM leukemia
[5] = system: COLO 205 colon
[6] = system: DU-145 prostate
[7] = system: HCC-2998 colon
[8] = system: HCT-116 colon
[9] = system: HCT-15 colon
[10] = system: HL-60(TB) leukemia
[11] = system: HT29 colon
[12] = system: IGROV1 ovarian
[13] = system: K-562 leukemia
[14] = system: KM12 colon
[15] = system: M14 melanoma
[16] = system: MALME-3M melanoma
[17] = system: MCF7 breast
[18] = system: MDA-MB-231 breast
[19] = system: MDA-MB-435
[20] = system: MOLT-4 leukemia
[21] = system: OVCAR-4 ovarian
[22] = system: OVCAR-5 ovarian
[23] = system: OVCAR-8 ovarian
[24] = system: SF-539 CNS
[25] = system: SK-MEL-2 melanoma
[26] = system: SK-MEL-28 melanoma
[27] = system: SK-MEL-5 melanoma
[28] = system: SN12C renal
[29] = system: SNB-19 CNS
[30] = system: SR leukemia
[31] = system: T-47D breast
[32] = system: TK-10 renal
[33] = system: UACC-257 melanoma
[34] = system: UACC-62 melanoma
[35] = system: UO-31 renal

`CCOc1cc(F)c([N+](=O)[O-])cc1[N+](=O)[O-]` was tested, and the GI50 [1] was 1860 nM and the TGI [1] was 3510 nM.
Compound `COC1=C(OC)C(=O)C(CCCCCCCCCC[P+](c2ccccc2)(c2ccccc2)c2ccccc2)=C(C)C1=O` has a GI50 [1] of 66.8 nM and a TGI [1] of 694 nM.
Compound `CN[C@@H](C)C(=O)N[C@H]1CCS[C@H]2CC(C)(C)[C@@H](C(=O)N[C@H]3c4ccccc4C[C@H]3OCC#CC#CCO[C@@H]3Cc4ccccc4[C@@H]3NC(=O)[C@H]3N4C(=O)[C@@H](NC(=O)[C@H](C)NC)CCS[C@H]4CC3(C)C)N2C1=O` has a GI50 [1] of less than 5 nM and a TGI [1] of 16.4 nM.
For `CSc1nc(-c2cc3ccccc3o2)cc(-c2ccc(Cl)cc2)c1C#N`, the GI50 [1] was 21800 nM and the TGI [1] was greater than 100000 nM.
In the case of `O=C1Nc2ccccc2/C1=C\c1c(-c2ccccc2)nc2ccccn12`, the GI50 [1] is reported as 2100 nM and the TGI [1] is reported as 6670 nM.
`NC(N)=NN=C(c1ccccc1)c1ccccc1` was tested, and the GI50 [1] was 2200 nM and the TGI [1] was 12200 nM.
Compound `COc1cc(/C=C/C(=O)c2ccc(Nc3nc(NCCO)nc(N4CCOCC4)n3)cc2)cc(OC)c1OC` has a GI50 [1] of 1340 nM and a TGI [1] of 3760 nM.
For `CC1CCCc2sc3nc(NNC(=O)c4cnccn4)n(-c4ccccc4)c(=O)c3c21` (stereo not given), the GI50 [1] was 333 nM and 239 nM and the TGI [1] was 2300 nM and 946 nM.
`CC[C@H](C)[C@@H]([C@@H](CC(=O)N1CCC[C@H]1[C@H](OC)[C@@H](C)C(=O)N[C@H](C)[C@@H](O)c1ccccc1)OC)N(C)C(=O)[C@@H](NC(=O)[C@@H](NC)C(C)C)C(C)C` (H-[NMeV]V[Dil][Dolaproine]-X2) gave a GI50 [1] of less than 5 nM and a TGI [1] greater than 57100 nM.
For `CCNC(=O)N1CCc2cc(OC)c(OCCc3ccc(OC)cc3)cc2C1c1ccc(OC)cc1C` (stereo not given), the GI50 [1] was 1930 nM and the TGI [1] was greater than 30200 nM.
`O=C(Nc1ccc2[nH]c3ccccc3c2c1)c1ccccc1Cl` was tested, and the GI50 [1] was 2860 nM and the TGI [1] was 24900 nM.
For `c1cc[n+](C2c3ccccc3C([n+]3ccccc3)c3ccccc32)cc1` (stereo not given), the GI50 [1] was 1110 nM and the TGI [1] was 4400 nM.
For `Clc1ccc2c(N3CCN(c4ccnc(NC5CCCCC5)n4)CC3)ccnc2c1`, the GI50 [1] was 1640 nM and the TGI [1] was 3600 nM.
For `COc1ccc(-c2cn[nH]c2-c2cc(OC)c(OC)c(OC)c2)cc1OCc1ccccc1`, the GI50 [1] was 2180 nM and the TGI [1] was 7940 nM.
For `Nc1n[nH]c2cccc(C#Cc3cccc(NC(=O)c4ccc(N5CCOCC5)c(C(F)(F)F)c4)c3)c12`, the GI50 [1] was 2280 nM and the TGI [1] was 6820 nM.
In the case of `COc1cccc(C2=C(c3cn(C)c4ccc(Cl)cc34)C(=O)NC2=O)c1`, the GI50 [1] is reported as 4170 nM and the TGI [1] is reported as 17100 nM.
Work on `CC[C@H](C)[C@H](NC(=O)c1ccccn1)C(=O)N(C)[C@H](C[C@@H](OC(C)=O)c1nc(C(=O)N[C@@H](Cc2ccccc2)C[C@H](C)C(=O)OC)cs1)C(C)C` yielded a GI50 [1] of 3380 nM and a TGI [1] of 15400 nM.
For `CCCCC(CCCCCC(CCCC)C1NC(C)Cc2cc(OC)c(OC)cc21)C1NC(C)Cc2cc(OC)c(OC)cc21` (stereo not given), the GI50 [1] was 436 nM and the TGI [1] was 1880 nM.
`CNC(=O)c1ccccc1Nc1cc(Nc2ccc(N3CCOCC3)cc2OC)ncc1C(F)(F)F` gave a GI50 [1] of 27800 nM and a TGI [1] of 97800 nM.
Compound `O=C1/C=C/[C@@H](O)[C@@H]2C[C@@H](O)C[C@H]2/C=C/CCC[C@H](CCOCc2ccccc2)O1` has a GI50 [1] of less than 16.1 nM and a TGI [1] of 31.2 nM.
Work on `COc1cc(Nc2ccnc(NCCNc3ccnc4cc(Cl)ccc34)n2)cc(OC)c1` yielded a GI50 [1] of 1040 nM and a TGI [1] of 3330 nM.
With `O=C(C[n+]1cccc2cc(Cl)ccc21)c1ccc2c(c1)CCCC2` the GI50 [1] was 423 nM and the TGI [1] was 1820 nM.
Compound `Cc1ccc(C)c(NC2=C(Cl)C(=O)c3nc(C)ccc3C2=O)c1` has a GI50 [1] of 1510 nM and a TGI [1] of 3080 nM.
For `O=C(Cc1n[nH]c(=O)c2ccccc12)OCc1c(Cl)cccc1Cl`, the GI50 [1] was greater than 100000 nM and the TGI [1] was greater than 100000 nM.
`COc1cccc2[nH]c3c4c(c5c(c3c12)C(=O)N(CN1CCN(C)CC1)C5=O)CCC4` gave a GI50 [1] of 5150 nM and a TGI [1] of 26600 nM.
Compound `COc1ccc2c(c1)C=CC1(O2)Oc2ccc(OC)cc2C=C1C` (stereo not given) has a GI50 [1] of 876 nM and a TGI [1] greater than 100000 nM.
For `COc1ccc2cc(C#Cc3ccc(-n4c(/C=C/c5cc(OC)c(OC)c(OC)c5)nc5ccccc5c4=O)c(C)c3)ccc2c1`, the GI50 [1] was 3800 nM and the TGI [1] was greater than 100000 nM.
In the case of `C[C@@H]1C[C@H]2C(=O)OCC(NC(=O)[C@H](Cc3cc(F)cc(F)c3)NC(=O)Nc3ccc(Cl)cc3F)C(=O)N3CCC[C@H]3C(=O)N3CCCC[C@H]3C(=O)N[C@@H](C)C(=O)N2C1` (stereo not given in full), the GI50 [1] is reported as 1430 nM and 294 nM and the TGI [1] is reported as 18800 nM and 2880 nM.
With `C[C@]12CC[C@@H]3c4ccc(O)cc4CC[C@H]3[C@@H]1CC[C@@H]2NS(=O)(=O)c1ccc(Cl)cc1` the GI50 [1] was 4940 nM and the TGI [1] was 17300 nM.
`C=CC(=O)N1CCN(CCCn2c(=O)c(-c3c(Cl)c(OC)cc(OC)c3Cl)cc3cnc(NC)nc32)CC1` gave a GI50 [1] of 1240 nM and a TGI [1] of 5900 nM.
`Clc1ccc(C(Cn2ccnc2)OCc2ccsc2Cl)c(Cl)c1` (stereo not given) gave a GI50 [1] of 2300 nM and a TGI [1] of 7300 nM.
`COc1cc(C2C3=C(COC3=O)N(CCO)c3cc4c(cc32)OCO4)cc(OC)c1OC` (stereo not given) was tested, and the GI50 [1] was 242 nM and 344 nM and the TGI [1] was 626 nM and 979 nM.
In the case of `COc1ccc(/C(C)=C(\c2ccc(Cl)cc2)c2ccc(OCCN3CCCCC3)cc2)cc1`, the GI50 [1] is reported as 3670 nM and the TGI [1] is reported as 8030 nM.
`Cc1ccc(S(=O)(=O)c2ccccc2)cc1` showed a GI50 [1] of 1590 nM and a TGI [1] of 5780 nM.
For `O=C(Nc1ncc(Cc2ccccc2)s1)c1sc2ccccc2c1Cl`, the GI50 [1] was 1400 nM and the TGI [1] was 18700 nM.
With `CC[N+](CC)=c1cc2oc3cc(N(C)C)ccc3nc-2cc1C` the GI50 [1] was 1330 nM and the TGI [1] was 4390 nM.
`O=C(NCCCCCCCCCC[P+](c1ccccc1)(c1ccccc1)c1ccccc1)c1ccc(-n2nc(-c3ccccc3O)nc2-c2ccccc2O)cc1` was tested, and the GI50 [2] was 379 nM, the TGI [2] was 1360 nM and the GI50 [3] was 104 nM. For the same compound, the TGI [3] was 673 nM, the GI50 [4] was 39.6 nM and the TGI [4] was greater than 100000 nM. It also gave a GI50 [5] of 50.8 nM, a TGI [5] of 268 nM and a GI50 [6] of 46.4 nM. The TGI [6] was 1630 nM, the GI50 [7] was 57.4 nM and the TGI [7] was 1430 nM. For the same compound, the GI50 [8] was 37.7 nM, the TGI [8] was 1080 nM and the GI50 [9] was 566 nM. It also gave a TGI [9] of 2480 nM, a GI50 [10] of 56.5 nM and a TGI [10] of 461 nM. The GI50 [11] was 40.1 nM, the TGI [11] was 789 nM and the GI50 [12] was 48.3 nM. It also gave a TGI [12] of 1180 nM, a GI50 [13] of 44.9 nM and a TGI [13] of 3210 nM. The GI50 [14] was 203 nM, the TGI [14] was 1340 nM and the GI50 [15] was 82.5 nM. For the same compound, the TGI [15] was 1320 nM, the GI50 [16] was 30.7 nM and the TGI [16] was 190 nM. For the same compound, the GI50 [17] was 41.7 nM, the TGI [17] was 953 nM and the GI50 [18] was 99.3 nM. The TGI [18] was 728 nM, the GI50 [19] was 40.9 nM and the TGI [19] was 1110 nM. For the same compound, the GI50 [1] was 25.5 nM, the TGI [1] was 121 nM and the GI50 [20] was 58.5 nM. For the same compound, the TGI [20] was 1430 nM, the GI50 [21] was 180 nM and the TGI [21] was 2210 nM. The GI50 [22] was 192 nM, the TGI [22] was 926 nM and the GI50 [23] was 74 nM. For the same compound, the TGI [23] was 1220 nM, the GI50 [24] was 172 nM and the TGI [24] was 716 nM. The GI50 [25] was 133 nM, the TGI [25] was 530 nM and the GI50 [26] was 115 nM. The TGI [26] was 1590 nM, the GI50 [27] was 165 nM and the TGI [27] was 447 nM. The GI50 [28] was 40.7 nM, the TGI [28] was 721 nM and the GI50 [29] was 50.5 nM. For the same compound, the TGI [29] was 1170 nM, the GI50 [30] was less than 19.1 nM and the TGI [30] was greater than 40500 nM. For the same compound, the GI50 [31] was 35.2 nM, the TGI [31] was 522 nM and the GI50 [32] was 330 nM. The TGI [32] was 1500 nM, the GI50 [33] was 90.4 nM and the TGI [33] was 792 nM. For the same compound, the GI50 [34] was 84 nM, the TGI [34] was 568 nM and the GI50 [35] was 428 nM. For the same compound, the TGI [35] was 1930 nM.
`Nc1ccc(S(=O)(=O)c2ccc(N)cc2)cc1` was tested, and the GI50 [1] was greater than 100000 nM and the TGI [1] was greater than 100000 nM.
In the case of `O=C1/C(=C/c2ccccc2)CN(C(=O)CCN2CCC(=NO)CC2)C/C1=C\c1ccccc1`, the GI50 [1] is reported as 1740 nM and the TGI [1] is reported as 4250 nM.
`Cc1nc2ccccc2nc1NNc1ccccc1` was tested, and the GI50 [1] was 10300 nM and the TGI [1] was 58000 nM.
`N#CC1(Nc2ccc(Br)cc2)CCCC1` showed a GI50 [1] greater than 100000 nM and a TGI [1] greater than 100000 nM.
